Data as given in article PMC3210601, “New Tetromycin Derivatives with Anti-Trypanosomal and Protease Inhibitory Activities” (Marine Drugs, 2011).
Several values for one entry are separate records, joined by “and”; a condition that tells them apart may be missing. Identical values can stand only once. Like-named read-outs stand apart in the source and are kept apart here.

Experiments:
SARS-CoV PL^pro = SARS-CoV PL^pro (Severe acute respiratory syndrome coronavirus, UniProt P0C6X7); assay: biochemical
cathepsin B = cathepsin B (Homo sapiens, UniProt P07858); assay: Fluorometric protease inhibition assay, cathepsin B; type: biochemical, mammalian; settings: for Ki: non-time dependent, Dixon equation, corrected to zero substrate, substrate 100 μM, pH 6.2, 25 °C, read-out: CB Ki
[1] = system: Leishmania major promastigotes; assay: Anti-Leishmania Alamar Blue assay (promastigotes); settings: read-out: IC50 L. major
rhodesain = rhodesain (Trypanosoma brucei rhodesiense, UniProt Q95PM0); assay: Fluorometric protease inhibition assay, rhodesain; type: biochemical, T. brucei rhodesiense; settings: for Ki: read-out: RD Ki; for RD k2nd: time-dependent inhibition, k2nd = ki/Ki
falcipain-2 = falcipain-2 (Plasmodium falciparum, UniProt Q8I6U4); assay: Fluorometric protease inhibition assay, falcipain-2; type: biochemical, P. falciparum; settings: for Ki: read-out: FP Ki; for FP k2nd: time-dependent inhibition, k2nd = ki/Ki
cathepsin L = cathepsin L (Homo sapiens, UniProt P07711); assay: Fluorometric protease inhibition assay, cathepsin L; type: biochemical, mammalian; settings: for Ki: read-out: CL Ki; for CL k2nd: time-dependent inhibition, k2nd = ki/Ki
[2] = Cytotoxicity Alamar Blue assay, 293T kidney epithelial cells; settings: human
[3] = system: Trypanosoma brucei subsp. brucei; assay: Anti-Trypanosoma Alamar Blue assay (trypomastigotes, strain TC 221)
[4] = mouse
[5] = 48 h, read-out: IC50 T. brucei brucei (48 h)
[6] = 72 h, read-out: IC50 T. brucei brucei (72 h)
[7] = progress curves, inhibitor 0-16.7 μM (Figure 6)

cathepsin L, sequence (P07711 114-333, species assumed): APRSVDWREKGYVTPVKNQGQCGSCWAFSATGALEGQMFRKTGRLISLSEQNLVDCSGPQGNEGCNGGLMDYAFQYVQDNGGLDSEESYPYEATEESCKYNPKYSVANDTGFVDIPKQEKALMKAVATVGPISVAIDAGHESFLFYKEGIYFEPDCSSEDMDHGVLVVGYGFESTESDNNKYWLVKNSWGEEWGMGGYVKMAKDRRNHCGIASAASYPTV
rhodesain, sequence (Q95PM0 entry or part of it): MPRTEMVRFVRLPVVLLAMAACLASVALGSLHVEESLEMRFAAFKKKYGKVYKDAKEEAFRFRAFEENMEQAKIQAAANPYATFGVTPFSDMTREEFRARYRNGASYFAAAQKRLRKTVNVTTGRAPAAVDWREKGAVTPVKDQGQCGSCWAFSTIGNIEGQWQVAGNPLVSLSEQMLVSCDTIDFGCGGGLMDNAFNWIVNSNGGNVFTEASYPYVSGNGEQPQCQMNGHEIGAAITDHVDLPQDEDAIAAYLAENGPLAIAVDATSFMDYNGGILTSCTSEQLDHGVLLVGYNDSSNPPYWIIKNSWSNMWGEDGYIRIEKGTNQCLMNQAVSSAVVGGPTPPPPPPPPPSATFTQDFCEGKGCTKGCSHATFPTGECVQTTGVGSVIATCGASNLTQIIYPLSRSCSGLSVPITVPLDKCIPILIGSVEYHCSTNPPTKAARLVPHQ
falcipain-2, sequence (Q8I6U4 244-484): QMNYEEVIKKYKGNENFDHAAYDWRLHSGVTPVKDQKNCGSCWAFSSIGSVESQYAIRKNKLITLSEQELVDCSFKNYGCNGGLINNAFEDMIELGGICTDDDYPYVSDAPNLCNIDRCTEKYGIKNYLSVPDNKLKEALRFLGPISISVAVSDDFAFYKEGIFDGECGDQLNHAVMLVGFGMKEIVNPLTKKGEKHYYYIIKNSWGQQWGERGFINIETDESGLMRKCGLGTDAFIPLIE

Row | Structure (SMILES) | Ki (SARS-CoV PL^pro) [µM] | Ki (cathepsin B) | IC50 [1] [µM] | Ki (rhodesain) [µM] | RD k2nd (rhodesain) | Ki (falcipain-2) [µM] | FP k2nd (falcipain-2) | Ki (cathepsin L) [µM] | CL k2nd (cathepsin L) | IC50 at 24 h ([2]; 293T kidney epithelial cells) [µM] | IC50 [3, 5] [µM] | IC50 [3, 6] [µM] | time dependence of inhibition, cathepsin B (cathepsin B; [7]) | mode of inhibition with respect to the substrate, rhodesain (rhodesain; Ki determined at three different substrate concentrations) | time dependence of inhibition, rhodesain (rhodesain; [7]) | IC50 at 24 h [4] [µM] | IC50 at 24 h [2] [µM] | ki (rate constant of inhibition) rhodesain (rhodesain; Figure 8, data from two independent assays) [min⁻¹]
1 | COc1cc(O)cc(C)c1C(=O)OC1C(C)OC(OC2CC(C)=CC3C2CC(C)C2/C(C)=C\CC/C(C)=C/C4(C)C=C(C(=O)O)C(C)CC45OC(=O)C(=C5O)C(=O)C32C)C(O)C1O (stereo not drawn) [Compound 4, Tetromycin 4] | 40 ± 6.5 | 1.6 ± 0.1 µM | > 100 | 4 ± 0.3 | 8354 ± 1562 M⁻¹ min⁻¹ | 3.1 ± 0.2 | 1836 ± 108 M⁻¹ min⁻¹ | 22.4 ± 0.8 | 14,700 ± 1000 M^−1 min^−1 | 58.6 | 35.9 | 41.6 | – | – | – | – | – | –
2 | COc1cc(C)c(C(=O)NC2C(C)OC(OC3CC(C)=CC4C3CC(C)C3/C(C)=C\CC/C(C)=C/C5(C)C=C(C(=O)O)C(C)CC56OC(=O)C(=C6O)C(=O)C43C)C(O)C2(C)O)c(O)c1 (stereo not drawn) [Compound 1, Tetromycin 1] | – | – | > 100 | – | – | – | – | – | – | > 100 | 29.3 | 31.7 | – | – | – | – | – | –
3 | CC1=CC2(C)/C=C(\C)CC/C=C(/C)C3C(C)=CC4C(O)CCC(C)C4C3(C)C(=O)C3=C(O)C2(CC1C)OC3=O (stereo not drawn) [Compound 5, Tetromycin B] | 69.6 ± 7.2 | 1.5 µM and 1.59 µM | > 100 | 0.62 ± 0.03 | 14,539 ± 1949 M^−1 min^−1 | 1.42 ± 0.01 | 15,540 ± 1295 M^−1 min^−1 | 32.5 ± 0.05 | 1576 ± 413 M⁻¹ min⁻¹ | – | 30.9 | 34.2 | non-time dependent inhibition | competitive inhibition | time-dependent inhibition | 20.2 | 71.8 | –
4 | COc1cc(C)c(C(=O)OC2C(C)OC(OC3CC(C)=CC4C3CC(C)C3/C(C)=C\CC/C(C)=C/C5(C)C=C(C(=O)O)C(C)CC56OC(=O)C(=C6O)C(=O)C43C)C(O)C2O)c(OC)c1 (stereo not drawn) [Compound 2, Tetromycin 2] | – | – | > 100 | – | – | – | – | – | – | > 100 | 45.4 | 80.3 | – | – | – | – | – | –
5 | COc1cc(O)cc(C)c1C(=O)OC1C(C)OC(OC2CC=C(C)C3C2CC(C)C2/C(C)=C\CC/C(C)=C/C4C=C(C(=O)O)C(C)CC45OC(=O)C(=C5O)C(=O)C32C)C(O)C1O (stereo not drawn) [Compound 3, Tetromycin 3] | – | 0.57 ± 0.04 µM | 36.8 | 2.1 ± 0.9 | 36,600 ± 1590 M^−1 min^−1 | 1.65 ± 0.25 | 617 ± 9 M⁻¹ min⁻¹ | 15 ± 1.95 | 14,977 ± 2005 M^−1 min^−1 | 33.4 | 26.9 | 30.4 | – | – | – | – | – | 0.042
